Reference: patent US10414734B2, “5-hydroxyalkylbenzimidazoles as mIDH1 inhibitors” (BAYER PHARMA AKTIENGESELLSCHAFT, priority 2015, dated 2019)

Tests used:
[1] = tested on: LN229 R132H cells overexpressing mutated isocitrate dehydrogenase (mIDH); experiment: Mutant IDH1 cellular assay (2-HG in medium); assay type: cell-based; details: 2-HG in medium after 24 hours, fluorescence readout
Method: Mutant IDH1 Cellular Assay
Levels of (2R)-2-hydroxyglutarate (2HG) were measured in medium of a cell line with overexpression of mutated isocitrate dehydrogenase (mIDH) protein. mIDH catalyzes the NADPH-dependent reduction of alpha-ketoglutarate to 2-HG. Cells (LN229 R132H, Mohrenz et al., Apoptosis (2013) 18:1416-1425) were grown in DMEM containing 10% FCS. They were harvested by trypsin and seeded into 96-well plates. Cells were incubated overnight at 37° C. in 5% CO2. The next day test compounds were added to each cell well. The final concentration of DMSO was 0.1% and DMSO controls were included. The plates were then placed in an incubator for 24 hours.
2-HG was measured according to Balss et al. (Acta Neuropathol (2012) 124: 883-891). Briefly, perchloric acid was added to each well and the plates were centrifuged. Aliquots are removed and incubated with hydroxyglutarate dehydrogenase (HGDH), diaphorase, NAD+, and resazurin. The conversion of resazurin to resorufin was detected by fluorescence spectroscopy at Ex 540 nm Em 600 nm. The increase in fluorescence is proportional to 2-HG production. IC50 values are determined by interpolation from plots of relative fluorescence vs inhibitor concentration.

IDH1 R132H enzyme = IDH1 R132H enzyme (Homo sapiens (Human), UniProt O75874, R132H); experiment: Mutant IDH1 R132H biochemical assay; details: luminescent NADPH consumption readout; 1.5 nM enzyme, 1 μM NADPH, 250 μM α-KG, 30 min, 32° C.
Sequence of IDH1 R132H enzyme (O75874 whole entry R132H): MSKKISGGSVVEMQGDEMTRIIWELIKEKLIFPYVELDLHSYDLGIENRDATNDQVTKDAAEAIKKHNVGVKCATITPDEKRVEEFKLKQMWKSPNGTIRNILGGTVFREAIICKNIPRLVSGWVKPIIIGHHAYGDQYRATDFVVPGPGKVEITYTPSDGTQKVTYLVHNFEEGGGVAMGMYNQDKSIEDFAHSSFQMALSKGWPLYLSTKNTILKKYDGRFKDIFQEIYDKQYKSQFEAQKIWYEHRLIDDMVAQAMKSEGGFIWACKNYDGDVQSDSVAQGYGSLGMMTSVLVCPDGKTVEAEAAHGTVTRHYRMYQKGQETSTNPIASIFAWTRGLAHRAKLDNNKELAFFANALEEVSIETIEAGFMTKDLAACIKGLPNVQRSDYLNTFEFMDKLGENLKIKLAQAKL
Method: Mutant IDH1 R132H Biochemical Assay
mIDH1 catalyzes the NADPH-dependent reduction of alpha-ketoglutarate (α-KG) to (2R)-2-hydroxyglutarate (2-HG). NADPH consumption was measured by luminescent readout.
The biochemical reactions were performed at 32° C. in 384-well plates using a reaction volume of 41 μL and the following assay buffer conditions: 50 mM Tris pH 7.5, 100 mM NaCl, 20 mM MgCl2, 0.05% BSA, 0.01% Brij, 1 μM NADPH, and 250 μM α-KG. The IDH1 R132H enzyme was used in a final concentration of 1.5 nM. Test compounds were used in a concentration range between 0.002 and 10 μM. The final DMSO concentration was 2.4%.
The reaction was incubated for 30 minutes, then 40 μL of detection mix (0.75 μg/ml Luciferase, 0.02 U/ml Oxidoreductase, 4 μg/mL FMN, 2 μL/ml decanal/ethanol, 50 mM Tris pH 7.5, 0.5% Glycerin, 0.01% Tween-20, 0.05% BSA) was added. Luminescence was measured on a luminescent reader (10 seconds measuring time, 1 second integration period, 30% sensitivity). The decrease in luminescence is proportional to mIDH1 activity. IC50 values are determined by interpolation from plots of relative luminescence versus inhibitor concentration.

SMILES | IC50 ([1]; Homo sapiens, LN-229, 24 h) | IC50 (IDH1 R132H enzyme) | IC50 [1]
Cc1cc2c(cc1[C@@H](O)C(F)(F)F)nc(Nc1ccc(OC(F)(F)F)cc1)n2C1CC(C)(C)CC(C)(C)C1 (racemic) [Example 2-5, (±) 2,2,2-trifluoro-1-[6-methyl-1-(3,3,5,5-tetramethylcyclohexyl)-2-{[4-(trifluoromethoxy)phenyl]amino}-1H-benzimidazol-5-yl]ethanol] | 800 nM | 30 nM | 
C[C@@H]1C[C@H](n2c(Nc3ccc(OC(F)(F)F)cc3)nc3cc(CO)ccc32)CC(C)(C)C1 (single isomer, unassigned; enantiomer a) [Example 2-1-1, (2-{[4-(trifluoromethoxy)phenyl]amino}-1-[(cis)-3,3,5-trimethylcyclohexyl]-1H-benzimidazol-5-yl)methanol, enantiomer A] | 1300 nM | 50 nM | 
COc1cc2c(cc1CO)nc(Nc1ccc(OC(F)(F)F)cc1)n2[C@H]1C[C@@H](C)CC(C)(C)C1 (single isomer, unassigned; enantiomer a) [Example 2-6-1, (6-methoxy-2-{[4-(trifluoromethoxy)phenyl]amino}-1-[(cis)-3,3,5-trimethylcyclohexyl]-1H-benzimidazol-5-yl)methanol, enantiomer A] |  | 20 nM | 140 nM
COc1cc2c(cc1C(C)(C)O)nc(Nc1ccc(OC(F)(F)F)cc1)n2[C@H]1C[C@@H](C)CC(C)(C)C1 (single isomer, unassigned; enantiomer a) [Example 2-7-1, 2-(6-methoxy-2-{[4-(trifluoromethoxy)phenyl]amino}-1-[(cis)-3,3,5-trimethylcyclohexyl]-1H-benzimidazol-5-yl)propan-2-ol, enantiomer A] |  | 50 nM | 480 nM
C[C@@H]1C[C@H](n2c(Nc3ccc(OC(F)(F)F)cc3)nc3cc(C(C)(C)O)ccc32)CC(C)(C)C1 (single isomer, unassigned; enantiomer b) [Example 2-2-2, 2-(2-{[4-(trifluoromethoxy)phenyl]amino}-1-[(cis)-3,3,5-trimethylcyclohexyl]-1H-benzimidazol-5-yl)propan-2-ol, enantiomer B] | 500 nM | 40 nM | 
COc1cc2c(cc1CO)nc(Nc1ccc(OC(F)(F)F)cc1)n2[C@H]1C[C@@H](C)CC(C)(C)C1 (single isomer, unassigned; enantiomer b) [Example 2-6-2, (6-methoxy-2-{[4-(trifluoromethoxy)phenyl]amino}-1-[(cis)-3,3,5-trimethylcyclohexyl]-1H-benzimidazol-5-yl)methanol, enantiomer B] |  | 110 nM | 630 nM
COc1cc2c(cc1C(C)(C)O)nc(Nc1ccc(OC(F)(F)F)cc1)n2[C@H]1C[C@@H](C)CC(C)(C)C1 (single isomer, unassigned; enantiomer b) [Example 2-7-2, 2-(6-methoxy-2-{[4-(trifluoromethoxy)phenyl]amino}-1-[(cis)-3,3,5-trimethylcyclohexyl]-1H-benzimidazol-5-yl)propan-2-ol, enantiomer B] |  | 20 nM | 90 nM
Cc1cc2c(cc1C(C)(C)O)nc(Nc1ccc(OC(F)(F)F)cc1)n2C1CC(C)(C)CC(C)(C)C1 [Example 2-4, 2-[6-methyl-1-(3,3,5,5-tetramethylcyclohexyl)-2-{[4-(trifluoromethoxy)phenyl]amino}-1H-benzimidazol-5-yl]propan-2-ol] | 550 nM | 30 nM | 
